In US20230141433A1, “TRICYCLIC PESTICIDAL COMPOUNDS” (BASF SE, priority 2020, published 2023) one finds mortality data, which are given here for 23 compounds.

Holding throughout (assay type): in vivo
Assay [1] concerns vetch aphid (Megoura viciae). Briefly: Vetch aphid (Megoura viciae) contact or systemic test on broad bean leaf disks. The note with it: foliar, 120 h, 5 days, read-out: mortality in comparison with untreated controls (aphid mortality). The method, then:
(§1) If not otherwise specified, the test solutions are prepared as follows: The active compound is dissolved at the desired concentration in a mixture of 1:1 (vol:vol) distilled water:acetone. The test solution is prepared at the day of use. Test solutions are prepared in general at concentrations of 2500 ppm, 1000 ppm, 800 ppm, 500 ppm, 300 ppm, 100 ppm and 30 ppm (wt/vol).
Vetch Aphid (Megoura viciae)
For evaluating control of vetch aphid (Megoura viciae) through contact or systemic means the test unit consisted of 24-well-microtiter plates containing broad bean leaf disks.
The compounds were formulated using a solution containing 75% v/v water and 25% v/v DMSO. Different concentrations of formulated compounds were sprayed onto the leaf disks at 2.5 μl, using a custom built micro atomizer, at two replications. After application, the leaf disks were air-dried and 5-8 adult aphids placed on the leaf disks inside the microtiter plate wells. The aphids were then allowed to suck on the treated leaf disks and incubated at about 23±1° C. and about 50±5% relative humidity for 5 days. Aphid mortality and fecundity was then visually assessed.

The subject of assay [2] is boll weevil (Anthonomus grandis). The assay is described as follows: Boll weevil (Anthonomus grandis) egg and larval mortality, insect diet in 96-well microtiter plates. The note with it: 120 h, 5 days, read-out: mortality in comparison with untreated controls (egg and larval mortality). The procedure:
as §1
Boll Weevil (Anthonomus grandis)
For evaluating control of boll weevil (Anthonomus grandis) the test unit consisted of 96-well-microtiter plates containing an insect diet and 5-10 A. grandis eggs. The compounds were formula ted using a solution containing 75% v/v water and 25% v/v DMSO. Different concentrations of formulated compounds were sprayed onto the insect diet at 5 μl, using a custom built micro atomizer, at two replications. After application, microtiter plates were incubated at about 25±1° C. and about 75±5% relative humidity for 5 days. Egg and larval mortality was then visually assessed.

The subject of assay [3] is green peach aphid (Myzus persicae). Briefly: Green peach aphid (Myzus persicae) systemic test, artificial diet under membrane. The note with it: 72 h, 3 days, read-out: mortality in comparison with untreated controls (aphid mortality). The procedure: as §1
Green Peach Aphid (Myzus persicae) For evaluating control of green peach aphid (Myzus persicae) through systemic means the test unit consisted of 96-well-microtiter plates containing liquid artificial diet under an artificial membrane. The compounds were formulated using a solution containing 75% v/v water and 25% v/v DMSO. Different concentrations of formulated compounds were pipetted into the aphid diet, using a custom built pipetter, at two replications. After application, 5-8 adult aphids were placed on the artificial membrane inside the microtiter plate wells. The aphids were then allowed to suck on the treated aphid diet and incubated at about 23±1° C. and about 50±5% relative humidity for 3 days. Aphid mortality and fecundity was then visually assessed.

Assay [4] deals with yellow fever mosquito (Aedes aegypti). The assay is described as follows: whole plant or invertebrate. The note with it: 48 h, 2 days, read-out: mortality in comparison with untreated controls (larval mortality). The procedure:
as §1
Yellow Fever Mosquito (Aedes aegypti)
For evaluating control of yellow fever mosquito (Aedes aegypti) the test unit consisted of 96-well-microtiter plates containing 200 μl of tap water per well and 5-15 freshly hatched A. aegypti larvae. The active compounds were formulated using a solution containing 75% (v/v) water and 25% (v/v) DMSO. Different concentrations of formulated compounds or mixtures were sprayed onto the insect diet at 2.5 μl, using a custom built micro atomizer, at two replications. After application, microtiter plates were incubated at 28±1° C., 80±5% RH for 2 days. Larval mortality was then visually assessed.

Assay [5] has as its system tobacco budworm (Heliothis virescens). Briefly: Tobacco budworm (Heliothis virescens) egg and larval mortality, insect diet in 96-well microtiter plates. The note with it: 120 h, 5 days, read-out: mortality in comparison with untreated controls (egg and larval mortality). The procedure: as §1
Tobacco Budworm (Heliothis virescens)
For evaluating control of tobacco budworm (Heliothis virescens) the test unit consisted of 96-well-microtiter plates containing an insect diet and 15-25 H. virescens eggs. The compounds were formulated using a solution containing 75% v/v water and 25% v/v DMSO. Different concentrations of formulated compounds were sprayed onto the insect diet at 10 μl, using a custom built micro atomizer, at two replications. After application, microtiter plates were incubated at about 28±1° C. and about 80±5% relative humidity for 5 days. Egg and larval mortality was then visually assessed.

On to `CCS(=O)(=O)c1c(-c2nc3cnc4c(OC(F)(F)F)cccc4c3n2C)nc2ccc(C(F)(F)F)cn12` [C-1], for which the mortality at 2500 ppm in assay [1], in assay [2], in assay [3] and in assay [5] was over 75% throughout. Besides, the mortality at 800 ppm in assay [4] was at least 75%.

Take `CCS(=O)(=O)c1c(-c2nc3cnc4c(C(F)(F)F)cccc4c3n2C)nc2ccc(C(F)(F)F)cn12` [C-2]: the mortality at 2500 ppm in assay [1], in assay [2], in assay [3] and in assay [5] was over 75% in each case. In addition, the mortality at 800 ppm in assay [4] was at least 75%.

Consider `CCS(=O)(=O)c1c(-c2nc3cnc4c(C(F)(F)F)cccc4c3n2C)nc2ccccn12` [C-3], for which the mortality at 2500 ppm in assay [1], in assay [2], in assay [3] and in assay [5] was over 75% in each case. For the same compound, the mortality at 800 ppm in assay [4] is at least 75%.

For `CCS(=O)(=O)c1c(-c2nc3cnc4c(OC(F)(F)F)cccc4c3n2C)nc2ccccn12` [C-4, 2-(3-ethylsulfonylimidazo[1,2-a]pyridin-2-yl)-1-methyl-6-(trifluoromethoxy)imidazo[4,5-c]quinoline], the mortality at 2500 ppm in assay [1], in assay [2], in assay [3] and in assay [5] was over 75% each time. Moreover, the mortality at 800 ppm in assay [4] was at least 75%.

`CCS(=O)(=O)c1c(-c2nc3cnc4cc(C(F)(F)F)ccc4c3n2C)nc2ccccn12` [C-6]: the mortality at 2500 ppm in assay [2] and in assay [5] was over 75% throughout.

Take `CCS(=O)(=O)c1c(-c2cn3c(ccc4c(C(F)(F)F)ccnc43)n2)nc2ccccn12` [C-7, 8-(3-ethylsulfonylimidazo[1,2-a]pyridin-2-yl)-4-(trifluoromethyl)imidazo[1,2-a][1,8]naphthyridine]: the mortality at 2500 ppm in assay [2], in assay [3] and in assay [5] was over 75% throughout. The mortality at 800 ppm in assay [4] was at least 75%.

Regarding `CCS(=O)(=O)c1c(-c2cn3c(ccc4c(C(F)(F)F)cc(C(F)(F)F)nc43)n2)nc2ccc(C(F)(F)F)cn12` [C-8], the mortality at 800 ppm in assay [2] and in assay [5] was over 75% throughout.

As to `CCS(=O)(=O)c1c(-c2cn3c(ccc4c(C(F)(F)F)ccnc43)n2)nc2ccc(C(F)(F)F)cn12` [C-9], the mortality at 800 ppm in assay [2] was over 75%; in assay [3], over 75%; in assay [4], at least 75%; in assay [5], over 75%.

Take `CCS(=O)(=O)c1c(-c2cn3c(ccc4c(C(F)(F)F)ccnc43)n2)nn2ccccc12` [C-10]: the mortality at 800 ppm in assay [2] and in assay [3] was over 75% in each case.

In the case of `CCS(=O)(=O)c1c(-c2nc3cc(C(F)(F)F)c4ncccc4c3n2C)nc2ccccn12` [C-11, 2-(3-ethylsulfonylimidazo[1,2-a]pyridin-2-yl)-1-methyl-5-(trifluoromethyl)imidazo[4,5-f]quinoline], the mortality at 800 ppm in assay [2], in assay [3] and in assay [5] was over 75% in each case.

Consider `CCS(=O)(=O)c1c(-c2nc3cnc4c(C(F)(F)F)cccc4c3n2C)nc2n1CCCC2` [C-12], for which the mortality at 800 ppm in assay [2] was over 75%; in assay [3], over 75%; in assay [4], at least 75%; in assay [5], over 75%.

As to `CCS(=O)(=O)c1c(-c2nc3cnc4cc(OC(F)(F)F)ccc4c3n2C)nc2n1CCCC2` [C-14], the mortality at 800 ppm in assay [3] and in assay [5] was over 75% each time.

As for `CCS(=O)(=O)c1c(-c2nc3cnc4cc(OC(F)(F)F)ccc4c3n2C)nc2ncccn12` [C-15], the mortality at 800 ppm in assay [3] is over 75%.

`CCS(=O)(=O)c1c(-c2nc3cnc4c(C(F)(F)F)cccc4c3n2C)nc2ncccn12` [C-16]: in assay [3], the mortality at 800 ppm is over 75%.

Take `CCS(=O)(=O)c1c(-c2nc3cnc4c(OC(F)(F)F)cccc4c3n2C)nc2ncccn12` [C-17]: the mortality at 800 ppm in assay [3] is over 75%.

As to `CCS(=O)(=O)c1c(-c2nc3cnc4cc(C(F)(F)F)ccc4c3n2C)nc2ncccn12` [C-18], the mortality at 800 ppm in assay [5] is over 75%.

Consider `CCS(=O)(=O)c1c(-c2nc3cnc4c(C(F)(F)F)cccc4c3n2C)nn2ccccc12` [C-19], for which the mortality at 800 ppm in assay [2] was over 75%; in assay [3], over 75%; in assay [4] it was at least 75%; in assay [5], over 75%.

As to `CCS(=O)(=O)c1c(-c2nc3cnc4cc(C(F)(F)F)ccc4c3n2C)nn2ccccc12` [C-20], the mortality at 800 ppm in assay [2] and in assay [5] was over 75% each time.

Turning to `CCS(=O)(=O)c1c(-c2nc3cnc4c(OC(F)(F)F)cccc4c3n2C)nn2ccc(C(C)(C)C#N)cc12` [C-22], the mortality at 800 ppm in assay [2], in assay [3] and in assay [5] was over 75% each time.

On to `CCS(=O)(=O)c1c(-c2nc3cnc4cc(OC(F)(F)F)ccc4c3n2C)nn2ccc(C(C)(C)C#N)cc12` [C-23], for which the mortality at 800 ppm in assay [2] and in assay [5] was over 75% throughout.

In the case of `CCS(=O)(=O)c1c(-c2nc3cnc4cc(C(F)(F)F)ccc4c3n2C)nc2ccc(Br)cn12` [C-27], the mortality at 800 ppm in assay [2] is over 75%; in assay [4] it was at least 75%; in assay [5], over 75%.

In the case of `CCS(=O)(=O)c1c(-c2nc3cnc4c(C(F)(F)F)cccc4c3n2C)nc2ccc(Br)cn12` [C-28], the mortality at 800 ppm is over 75% in assay [2], over 75% in assay [3], at least 75% in assay [4] and over 75% in assay [5].

With `CCS(=O)(=O)c1c(-c2nc3cnc4cc(OC(F)(F)F)ccc4c3n2C)nn2ccccc12` [C-29], the mortality at 800 ppm is over 75% in assay [2], over 75% in assay [3], at least 75% in assay [4] and over 75% in assay [5].
